Reference: paper PMC5706701, “Development of a homogenous high-throughput assay for inositol hexakisphosphate kinase 1 activity” (PLoS ONE, 2017)
Structures can show the parent of a compound that is named as a salt. Where two headings read alike, the source gives them in different places.

Target: T1, Human IP6K1 (Homo sapiens, UniProt Q92551)
T1 construct: GST (N, cleaved yes); made in house; host or cells: C43 E. coli, pGEX-6P-2
Experiment: IP6K1 high-throughput screen of the Sigma LOPAC (ADP-Glo Max, single point);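 further: final compound concentration 10µM in 5% DMSO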
Format: biochemical

[1] = LOPAC single-point screen, ADP-Glo Max luminescence raw signal per well
[2] = LOPAC single-point screen, Z-score relative to plate average and StDev
[3] = LOPAC single-point screen, Z-score from plate average and StDev
[4] = LOPAC single-point screen, ADP-Glo Max raw signal per well
[5] = LOPAC single-point screen, Z-score from raw signal with plate average and StDev
[6] = LOPAC single-point screen, Z-score against plate average and StDev
[7] = Sigma LOPAC single-point screen, ADP-Glo Max raw signal per well
[8] = Sigma LOPAC single-point screen, Z-score from plate average and StDev

T1 sequence (Q92551 whole entry): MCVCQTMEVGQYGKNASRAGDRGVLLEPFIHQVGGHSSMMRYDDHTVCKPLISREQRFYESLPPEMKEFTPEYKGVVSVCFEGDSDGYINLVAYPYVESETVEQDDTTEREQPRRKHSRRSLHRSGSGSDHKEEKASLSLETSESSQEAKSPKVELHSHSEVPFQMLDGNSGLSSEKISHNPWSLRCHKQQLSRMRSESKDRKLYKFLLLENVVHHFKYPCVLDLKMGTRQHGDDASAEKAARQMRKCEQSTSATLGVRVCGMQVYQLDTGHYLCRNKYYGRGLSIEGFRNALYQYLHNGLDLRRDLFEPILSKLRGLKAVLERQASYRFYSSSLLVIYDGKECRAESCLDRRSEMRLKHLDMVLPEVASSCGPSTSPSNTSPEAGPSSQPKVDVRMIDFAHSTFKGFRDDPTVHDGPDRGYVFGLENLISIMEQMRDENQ

Structure (SMILES)	Raw Signal [1]	Raw Signal [4]	Z-score [5]	further results
CN(C(=O)CCCOc1ccc2[nH]c(=O)ccc2c1)C1CCCCC1 [Cilostamide]	54164	–	–	Z-score [2]: -0.6603
NC/C=C/C(=O)O [(E)-4-amino-2-butenoic acid]	52183	–	–	Z-score [2]: -1.009
COc1ccc2[nH]c3c(c2c1)CCNC3	69821	–	–	Z-score [3]: 2.097
O=C1CCC(N2C(=O)c3ccccc3C2=O)C(=O)N1 (racemic) [(±)-Thalidomide]	–	54848	-0.2284	–
CCC1(C2=NCCN2)Cc2ccccc2O1 (centres unmarked) [Efaroxan hydrochloride]	–	53966	-0.2439	–
CCNC(=O)[C@H]1O[C@@H](n2cnc3c(N)ncnc32)[C@H](O)[C@@H]1O [5 -N-Ethylcarboxamidoadenosine]	–	52988	-0.4425	–
Cl.Oc1cc2c(cc1O)C(c1ccccc1)CNCC2 (racemic) [(±)-SKF-38393 hydrochloride]	48418	–	–	Z-score [2]: -1.371
COc1ccc(CCN(C)CCCC(C#N)(c2cc(OC)c(OC)c(OC)c2)C(C)C)cc1OC.Cl (racemic) [(±)-Methoxyverapamil hydrochloride]	–	52492	-0.3195	–
O=[N+]([O-])c1ccc(O[C@@H]2O[C@H](CO)[C@@H](O)[C@H](O)[C@H]2F)c([N+](=O)[O-])c1	50009	–	–	Z-score [2]: -1.048
C=CC[C@H](N)C(=O)O [L-allylglycine]	–	58984	–	Z-score [6]: 0.1886
CN(C)c1nc(N(C)C)nc(N(C)C)n1 [Altretamine]	69030	–	–	Z-score [3]: 1.958
CO/N=C(\C(=O)N[C@@H]1C(=O)N2C(C(=O)O)=C(CSc3nc(=O)c(=O)[nH]n3C)CS[C@H]12)c1csc(N)n1 [Ceftriaxone sodium]	–	55787	-0.3745	–
O=C(O)c1cc(=O)c2c(Cl)cc(Cl)cc2[nH]1 [5,7-Dichlorokynurenic acid]	49912	–	–	Z-score [2]: -1.067
CN1CCN(C2=Nc3ccccc3Oc3ccc(Cl)cc32)CC1 [Loxapine succinate]	–	54983	–	Z-score [6]: 0.09905
Cc1nnc(SCC2=C(C(=O)O)N3C(=O)[C@@H](NC(=O)Cn4cnnn4)[C@H]3SC2)s1 [Cefazolin sodium]	–	59148	–	Z-score [6]: 0.2175
O=C(/C=C/c1ccc(O)cc1)c1ccc(O)cc1O [Isoliquiritigenin]	–	53778	-0.1034	–

Structure (SMILES)	Raw Signal [1]	Raw Signal [4]	Z-score [5]	further results
COc1cc([C@@H]2c3cc4c(cc3[C@@H](O[C@@H]3O[C@@H]5CO[C@@H](C)O[C@H]5[C@H](O)[C@H]3O)[C@H]3COC(=O)[C@H]23)OCO4)cc(OC)c1O [Etoposide]	–	53339	-0.3713	–
NNCc1cccc(O)c1 [3-Hydroxybenzylhydrazine dihydrochloride]	–	53590	-0.3203	–
CCCCCCCC/C=C\CCCCCCCC(=O)NCCc1ccc(O)c(O)c1 [N-Oleoyldopamine]	53486	–	–	Z-score [2]: -0.493
O=S(=O)(c1cccc2c(Cl)cccc12)N1CCCNCC1 [ML-9]	–	57828	–	Z-score [6]: -0.01499
CC(COc1ccc(/C=C/c2ccccc2)cc1)[N+](C)(C)C.[I-] (centres unmarked)	63739	–	–	Z-score [3]: 1.499
COc1ccccc1OCC(O)CN1CCN(CC(=O)Nc2c(C)cccc2C)CC1 (centres unmarked) [Ranolazine dihydrochloride]	–	54866	-0.2249	–
Clc1ccc(C(c2ccc(Cl)cc2)n2cc[n+](CC(OCc3ccc(Cl)cc3Cl)c3ccc(Cl)cc3Cl)c2)cc1 (centres unmarked) [Calmidazolium chloride]	–	57343	-0.1004	–
CCOC(=O)[N-]c1cn(N2CCOCC2)n[o+]1 [Molsidomine]	–	–	–	Raw Signal [7]: 60839; Z-score [8]: 1.083
Nc1nc2ccc(OC(F)(F)F)cc2s1 [Riluzole]	52217	–	–	Z-score [2]: -0.7396
C[C@H](CCC(=O)NCCS(=O)(=O)O)[C@H]1CC[C@H]2[C@@H]3[C@H](O)C[C@@H]4C[C@H](O)CC[C@]4(C)[C@H]3C[C@H](O)[C@]12C [Sodium Taurocholate]	–	–	–	Raw Signal: 58351; Z-score: 0.07713
Cl.NCCCCNS(=O)(=O)c1ccc2c(Cl)cccc2c1	–	59537	–	Z-score [6]: 0.286
COC(=O)c1c(-c2cc(OC)c(OC)c(OC)c2)c2ccc(OCc3ccccn3)cc2c(=O)n1-c1ccc(N)cc1.O=S(=O)(O)O [T-1032]	–	55393	-0.1226	–
COc1ccc2cc([C@H](C)C(=O)[O-])ccc2c1.[Na+] [(-)-Naproxen sodium]	–	–	–	Raw Signal [7]: 56716; Z-score [8]: 0.3902
COc1ccc2c(c1)CC[C@@H]1[C@@H]2CC[C@]2(C)[C@@H](NCCCCCCN3C(=O)C=CC3=O)CC[C@@H]12 [U-73122]	–	55186	-0.1628	–
C#CC(N)CCC(=O)O (centres unmarked) [gamma-Acetylinic GABA]	54991	–	–	Z-score [2]: -0.5147
